The source of these data is ChEMBL document CHEMBL1201862, “PubChem BioAssay data set” (2004).

Calls of active or inactive are those of the source. A value given as a limit tells only on which side of the number the result lay.

For experiment [1], the target named is T1, Ubiquitin-conjugating enzyme E2 N (Homo sapiens, UniProt P61088).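 Further: Dose-response confirmation in a TR-FRET assay detecting UBC13-driven polyubiquitin chain formation, inhibition measured.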
T1 sequence (P61088 whole entry): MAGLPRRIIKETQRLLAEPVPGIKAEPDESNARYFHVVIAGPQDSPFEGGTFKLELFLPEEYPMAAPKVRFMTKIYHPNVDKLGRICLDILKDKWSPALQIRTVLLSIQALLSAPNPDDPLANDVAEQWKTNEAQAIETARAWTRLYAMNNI
The class given is functional.

In experiment [2] the test system is BJ. Put plainly: cells. In kind it is functional, cell-based. The conditions noted are these: Homo sapiens.
In experiment [3] the test system is BJ. Put plainly: growth inhibition of engineered Ras-driven BJ cells – cell-based, alamar blue fluorescence, cherrypicked samples, dose response (AID 2631).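 Further: confirmatory dose-response assay in RAS-dependent BJ fibroblasts engineered with TERT, LT and ST, with cytotoxicity read by fluorescence.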 In kind it is functional. To be noted: Homo sapiens.
In experiment [4] the test system is BJ. Put plainly: BJ-TERT-LT-ST fibroblast viability loss – cell-based, RAS-independent, luminescence, dose response (AID 1935).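 Further: BJ fibroblasts immortalized with TERT plus LT and ST oncogenes.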 The class given is functional. The conditions noted are these: Homo sapiens.
Experiment [5] in a line: DRD fibroblast viability loss – cell-based, non-viral oncogenic, luminescence, dose response (AID 1934). To be noted: Homo sapiens. The class given is functional.
Experiment [6] relates to BJ. Kind of experiment: BJ-TERT fibroblast viability loss – cell-based, RAS-independent, luminescence, dose response (AID 1933). To be noted: Homo sapiens. The class given is functional.
The subject of experiment [7] is INS1. Kind of experiment: INS-1E survival protection against cytokine death – cell-based, luminescence, retest, dose response (AID 449756).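 Further: cell death triggered by IL-1 beta plus TNF-alpha plus IFN-gamma mixture; protective hits raise ATP signal compared with cytokine alone wells.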 To be noted: Rattus norvegicus. The class given is functional.
For experiment [8], the target named is T2, DNA repair protein RAD52 homolog (Homo sapiens, UniProt P43351).
T2 sequence (P43351 whole entry): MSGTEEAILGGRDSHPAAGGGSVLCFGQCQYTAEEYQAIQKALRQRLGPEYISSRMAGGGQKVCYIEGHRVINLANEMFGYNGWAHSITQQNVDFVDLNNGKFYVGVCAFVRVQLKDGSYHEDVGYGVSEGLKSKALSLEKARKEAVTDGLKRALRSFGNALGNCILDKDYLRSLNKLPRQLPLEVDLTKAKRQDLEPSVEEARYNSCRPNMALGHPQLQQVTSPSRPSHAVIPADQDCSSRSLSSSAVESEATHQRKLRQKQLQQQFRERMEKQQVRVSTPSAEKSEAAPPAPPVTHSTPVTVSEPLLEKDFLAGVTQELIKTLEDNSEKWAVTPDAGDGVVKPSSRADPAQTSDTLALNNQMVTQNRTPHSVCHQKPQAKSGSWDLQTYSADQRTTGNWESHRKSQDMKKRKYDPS
In kind it is functional, biochemical.

Experiment [9] relates to Escherichia coli. Kind of experiment: microbe, parasite or virus in culture.
Experiment [10] relates to Vero. Kind of experiment: viability of Vero cells under compound – cytotoxicity control for flavivirus capping enzyme inhibitors (AID 588742). The class given is functional. The conditions noted are these: Chlorocebus sabaeus.
Experiment [11] concerns the target T3, RNA-binding protein pos-1 (Caenorhabditis elegans, UniProt G5EF15).
T3 sequence (G5EF15 whole entry): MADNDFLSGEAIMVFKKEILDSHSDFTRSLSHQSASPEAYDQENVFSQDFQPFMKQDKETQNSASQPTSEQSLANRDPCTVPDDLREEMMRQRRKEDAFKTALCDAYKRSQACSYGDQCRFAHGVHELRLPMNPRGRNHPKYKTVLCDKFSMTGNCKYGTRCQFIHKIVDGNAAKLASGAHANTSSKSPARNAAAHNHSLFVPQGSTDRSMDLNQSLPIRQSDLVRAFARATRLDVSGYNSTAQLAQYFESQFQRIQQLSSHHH
Put plainly: disruptors of C. elegans POS-1 RNA interaction – biochemical, fluorescence polarization, dose response (AID 1964).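 Further: purified POS-1 fused to maltose binding protein made in E. coli; potency of compounds blocking POS-1 binding to fluorescent RNA.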 In general terms: Fluorescence polarisation rises when a labelled molecule tumbles more slowly, as on binding a larger partner.

The target in experiment [12] is T4, Endoribonuclease toxin MazF (Escherichia coli K-12, UniProt P0AE70).
T4 sequence (P0AE70 whole entry): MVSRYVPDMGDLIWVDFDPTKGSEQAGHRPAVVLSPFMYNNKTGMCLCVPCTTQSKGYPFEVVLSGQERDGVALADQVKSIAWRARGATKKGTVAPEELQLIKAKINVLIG
Put plainly: activation of MazEF endoribonuclease cleavage – biochemical, fluorescence, single-stranded RNA substrate, uHTS hits, dose response (AID 588481). The class given is functional.

The target of experiment [13] is T4, Endoribonuclease toxin MazF. Put plainly: substrate-only fluorescence increase artefacts – biochemical, single-stranded RNase substrate, counter-screen for MazEF activator project, dose response (AID 588502). In kind it is functional. In general terms: A counterscreen serves to expose hits that act by an unwanted route or on another target.
Experiment [14] addresses T5, Zinc finger protein mex-5 (Caenorhabditis elegans, UniProt Q9XUB2).
T5 sequence (Q9XUB2 whole entry): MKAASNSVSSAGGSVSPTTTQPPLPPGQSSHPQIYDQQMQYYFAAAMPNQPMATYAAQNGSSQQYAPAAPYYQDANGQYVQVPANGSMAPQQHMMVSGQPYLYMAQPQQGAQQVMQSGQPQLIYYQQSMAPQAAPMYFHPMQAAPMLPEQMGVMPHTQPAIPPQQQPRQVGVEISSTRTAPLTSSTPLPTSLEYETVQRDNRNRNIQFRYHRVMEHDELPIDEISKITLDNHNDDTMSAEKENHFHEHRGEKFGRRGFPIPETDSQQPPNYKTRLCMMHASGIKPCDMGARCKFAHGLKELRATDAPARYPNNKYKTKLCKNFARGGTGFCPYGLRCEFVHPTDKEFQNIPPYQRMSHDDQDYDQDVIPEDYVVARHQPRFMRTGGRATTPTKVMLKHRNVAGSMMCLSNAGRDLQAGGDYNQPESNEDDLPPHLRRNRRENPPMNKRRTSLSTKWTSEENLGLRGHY
Kind of experiment: potency of MEX-5 RNA-binding blockers – biochemical, C. elegans, fluorescence polarization, dose response (AID 1960).

Experiment [15] can be described thus: fluconazole-exposed Candida albicans growth modulators – fluorescence, retest, confirmation (AID 2467). In kind it is functional, cell-based.
Experiment [16] in a line: NIH-3T3 fibroblast cytotoxicity, dose response, cytotoxicity control, cell-based, fluorescence, Alamar Blue, secondary assay (AID 2327).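 Further: NIH-3T3 mouse fibroblasts cultured with fluconazole at 8 µg/mL.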 The class given is functional.
In experiment [17] the target is T6, Replicative DNA helicase DnaB (Mycobacterium tuberculosis, UniProt P9WMR3).
T6 sequence (P9WMR3 whole entry): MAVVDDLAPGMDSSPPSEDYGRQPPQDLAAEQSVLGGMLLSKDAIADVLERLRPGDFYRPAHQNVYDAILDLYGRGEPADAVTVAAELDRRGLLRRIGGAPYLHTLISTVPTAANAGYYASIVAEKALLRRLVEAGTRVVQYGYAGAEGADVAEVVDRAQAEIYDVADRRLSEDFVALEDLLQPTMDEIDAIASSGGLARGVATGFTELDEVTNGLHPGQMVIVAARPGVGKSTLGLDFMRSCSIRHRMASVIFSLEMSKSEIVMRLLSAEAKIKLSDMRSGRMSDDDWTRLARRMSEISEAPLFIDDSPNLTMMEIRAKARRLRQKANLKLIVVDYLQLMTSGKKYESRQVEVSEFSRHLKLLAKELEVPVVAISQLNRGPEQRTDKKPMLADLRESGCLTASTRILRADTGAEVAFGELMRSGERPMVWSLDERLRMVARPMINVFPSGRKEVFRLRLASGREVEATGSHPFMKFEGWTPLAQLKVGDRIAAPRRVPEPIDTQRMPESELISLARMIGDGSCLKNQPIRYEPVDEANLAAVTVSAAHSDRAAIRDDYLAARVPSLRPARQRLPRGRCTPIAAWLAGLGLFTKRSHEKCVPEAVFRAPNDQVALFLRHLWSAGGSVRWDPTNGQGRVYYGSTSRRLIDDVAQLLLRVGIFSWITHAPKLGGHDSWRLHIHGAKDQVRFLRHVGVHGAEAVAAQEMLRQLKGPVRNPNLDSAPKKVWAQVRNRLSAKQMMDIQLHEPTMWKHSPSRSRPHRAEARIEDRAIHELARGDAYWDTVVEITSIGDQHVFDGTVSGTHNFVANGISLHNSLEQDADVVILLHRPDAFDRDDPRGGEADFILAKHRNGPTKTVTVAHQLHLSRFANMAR
Put plainly: DnaB intein splicing inhibitors, dose response, biochemical, cell-free fluorescence (AID 449749). The class given is functional.

Experiment [18] has as its target T7, Protein RecA (Mycobacterium tuberculosis, UniProt P9WHJ3).
T7 sequence (P9WHJ3 whole entry): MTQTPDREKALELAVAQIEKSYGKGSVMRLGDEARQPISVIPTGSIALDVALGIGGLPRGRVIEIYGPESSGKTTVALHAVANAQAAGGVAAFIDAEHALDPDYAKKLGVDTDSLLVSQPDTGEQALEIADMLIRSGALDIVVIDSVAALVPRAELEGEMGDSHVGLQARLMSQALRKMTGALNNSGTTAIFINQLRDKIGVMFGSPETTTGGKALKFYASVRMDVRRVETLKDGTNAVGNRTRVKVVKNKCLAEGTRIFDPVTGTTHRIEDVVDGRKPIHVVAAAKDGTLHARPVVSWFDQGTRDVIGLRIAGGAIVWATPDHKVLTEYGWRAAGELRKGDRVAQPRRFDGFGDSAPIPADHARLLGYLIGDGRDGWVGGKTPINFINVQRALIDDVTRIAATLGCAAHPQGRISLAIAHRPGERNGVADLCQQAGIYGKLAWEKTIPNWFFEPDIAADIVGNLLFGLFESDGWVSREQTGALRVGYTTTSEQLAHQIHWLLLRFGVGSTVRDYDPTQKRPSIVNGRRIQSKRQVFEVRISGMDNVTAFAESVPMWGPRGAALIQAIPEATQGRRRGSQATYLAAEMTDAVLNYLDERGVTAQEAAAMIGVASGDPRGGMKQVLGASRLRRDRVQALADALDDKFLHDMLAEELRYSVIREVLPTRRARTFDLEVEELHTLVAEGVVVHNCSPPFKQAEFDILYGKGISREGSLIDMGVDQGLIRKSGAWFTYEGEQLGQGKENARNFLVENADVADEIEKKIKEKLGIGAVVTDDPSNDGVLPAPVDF
Kind of experiment: Fluorescence Cell-Free Homogeneous Dose Retest to Identify Inhibitors of RecA-Intein Splicing Activity. [Related pubchem assays (depositor defined):AID2097, AID2223, AID489010, AID492950]. In kind it is functional.

Experiment [19] concerns the target Mu-type opioid receptor (Homo sapiens, UniProt P35372). Kind of experiment: Counterscreen for agonists of heterodimerization of the mu 1 (OPRM1) and delta 1 (OPRD1) opioid receptors: Luminescence-based cell-based high throughput dose response assay to identify agonists of OPRM1 homodimerization. The class given is functional.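 Further: U2OS cells expressing OPRM1 and beta-arrestin as split beta-galactosidase partners.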
Experiment [20] addresses 5-hydroxytryptamine receptor 5A (Homo sapiens, UniProt P47898). Put plainly: Counterscreen for agonists of OPRM1-OPRD1 heterodimerization: luminescence-based cell-based high throughput dose response assay to identify agonists of 5-hydroxytryptamine (serotonin) 5A receptor (HTR5A). [Related pubchem assays (depositor defined):AID504326, AID504355, AID504692, AID504904, AID504905]. The class given is functional.

The target in experiment [21] is Delta-type opioid receptor (Homo sapiens, UniProt P41143). Put plainly: Counterscreen for agonists of heterodimerization of the mu 1 (OPRM1) and delta 1 (OPRD1) opioid receptors: Luminescence-based cell-based high throughput dose response assay to identify agonists of OPRD1 homodimerization. [Related pubchem assays (depositor defined):AID504326, AID504355, AID504692, AID504904, AID504905]. In kind it is functional.
Sequence of Delta-type opioid receptor (P41143 whole entry): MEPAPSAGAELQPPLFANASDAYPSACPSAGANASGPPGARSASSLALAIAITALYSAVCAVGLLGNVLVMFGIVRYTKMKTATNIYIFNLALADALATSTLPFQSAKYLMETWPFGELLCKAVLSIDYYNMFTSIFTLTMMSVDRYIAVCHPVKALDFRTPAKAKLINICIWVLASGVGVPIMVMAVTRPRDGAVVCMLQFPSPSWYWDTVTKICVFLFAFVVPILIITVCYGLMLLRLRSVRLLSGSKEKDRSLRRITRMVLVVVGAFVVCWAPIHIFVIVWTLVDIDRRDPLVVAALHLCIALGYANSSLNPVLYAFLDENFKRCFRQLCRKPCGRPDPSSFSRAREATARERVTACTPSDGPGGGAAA

Sequence of 5-hydroxytryptamine receptor 5A (P47898 whole entry): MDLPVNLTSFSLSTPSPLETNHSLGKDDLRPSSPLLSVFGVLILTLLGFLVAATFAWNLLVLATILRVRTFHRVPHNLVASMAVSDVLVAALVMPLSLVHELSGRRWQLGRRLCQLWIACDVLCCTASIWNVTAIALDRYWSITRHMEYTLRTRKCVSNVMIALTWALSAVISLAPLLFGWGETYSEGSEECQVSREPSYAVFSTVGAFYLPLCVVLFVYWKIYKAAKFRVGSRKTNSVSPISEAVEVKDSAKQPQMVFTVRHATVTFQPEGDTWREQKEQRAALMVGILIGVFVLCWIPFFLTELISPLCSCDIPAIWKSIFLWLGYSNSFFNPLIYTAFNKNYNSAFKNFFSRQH
Sequence of Mu-type opioid receptor (P35372 whole entry): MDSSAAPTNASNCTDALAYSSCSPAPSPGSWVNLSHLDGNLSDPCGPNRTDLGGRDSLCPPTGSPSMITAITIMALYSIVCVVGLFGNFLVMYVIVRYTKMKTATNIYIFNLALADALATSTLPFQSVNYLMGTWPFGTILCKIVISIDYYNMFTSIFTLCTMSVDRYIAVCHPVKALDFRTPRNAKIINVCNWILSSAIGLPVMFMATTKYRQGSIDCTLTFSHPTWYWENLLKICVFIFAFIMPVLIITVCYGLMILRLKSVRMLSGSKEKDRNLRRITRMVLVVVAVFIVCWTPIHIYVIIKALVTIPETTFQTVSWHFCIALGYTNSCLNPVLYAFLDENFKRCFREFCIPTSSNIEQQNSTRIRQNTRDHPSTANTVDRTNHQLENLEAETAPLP

Usually IC50 stands for the midpoint of a concentration-inhibition curve. For orientation: EC50 means the concentration at which the effect is half-maximal. In general, AC50 refers to the concentration at which the activity in the assay is half-maximal. Consider `COc1ccc(C2c3ccc4ccccc4c3Oc3ncn(CCCN(C)C)c(=N)c32)cc1` (stereo not drawn), for which, in experiment [1], the IC50 is > 20 µM (inactive). Further, the half-maximal effective concentration (EC50) in experiment [2] was 7.71 µM (active); in experiment [3], 2.86 µM (inconclusive); in experiment [4] it was 4.18 µM (active); in experiment [5], 4.43 µM (active); in experiment [6], 5.07 µM (inconclusive). Besides, the concentration at half-maximal activity (AC50) in [7] is 7.32 µM (active); in experiment [8], 2.33 µM (active).

`C=CCNC(=O)c1ccccc1NC(=O)Nc1ccccc1`: the half-maximal activity concentration (AC50) in experiment [9] was 44.4 µM (active).

A word on the CC50: it is the concentration giving 50% cytotoxicity. Regarding `CCCN1C(=O)/C(=C\C=C2/C=CN(CC)c3ccccc32)SC1=S`, the half-maximal cytotoxic concentration (CC50) in experiment [10] is > 40 µM (active).

For `CC(C)OC(=O)c1nn2c(C(F)(F)F)cc(-c3ccco3)nc2c1Cl`, in experiment [9], the AC50 was 43.9 µM (active).

In the case of `O=C(Nc1ccc(F)c(Cl)c1)c1cccnc1`, the AC50 in [9] was 61.5 µM (active).

Consider `COc1ccc(NC(=O)c2sc3nc(-c4cccnc4)ccc3c2N)cc1OC`, for which the EC50 in experiment [11] is 115 µM (inconclusive); in [12], > 99 µM (inactive); in experiment [13], 54.5 µM (inactive); in experiment [14], > 300 µM (inconclusive).

On to `Cc1ccc(-c2nc3sc(C#N)c(N)n3c(=O)c2C#N)cc1`, for which the EC50 is 1.72 µM (active) in experiment [15], > 99 µM (inactive) in experiment [12], > 99 µM (inactive) in [13] and > 160 µM (inactive) in [16].

Consider `CCSc1cc(C2C(C#N)=C(N)Oc3[nH]nc(C)c32)c(C)o1` (stereo not drawn), for which the 50% effective concentration (EC50) in [2] is 17.7 µM (active); in [3], 8.45 µM (active); in [4], > 150 µM (not active); in experiment [18], 3.29 µM (active); in experiment [5], 14.7 µM (active); in experiment [6], 25.5 µM (active). In experiment [17], the half-maximal activity concentration (AC50) was 10.3 µM (active).

As to `COc1ccc(-c2nc(CN3CCC(C(=O)NC4CCCc5ccccc54)CC3)c(C)o2)cc1OC` (stereo not drawn), the EC50 in experiment [19] was 20.8 µM (inactive); in experiment [20] it was > 92.4 µM (inactive); in experiment [21] it was > 92.4 µM (inactive).

Turning to `O=S(=O)(NC1CC1)c1ccc(S(=O)(=O)N2CCCC3(CCCCC3)C2)cc1`, the EC50 in experiment [19], in [20] and in experiment [21] was > 92.5 µM (inactive) in each case.
